From PubChem BioAssay (NCI)
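Grown in 96-well plates, cells were treated for 48 hours with each compound at five concentrations. Insufficient inhibition: endpoint recorded as highest concentration tested. Abbreviation: GI50, concentration required for 50% inhibition of growth. TGI is the concentration that stops growth completely.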

Experiments:
Experiment in all cases: NCI anticancer screen, dose series, 48 h
A549 NSCLC = tested on: A549 NSCLC
EKVX NSCLC = tested on: EKVX NSCLC
HCC-2998 colon = tested on: HCC-2998 colon
HCT-15 colon = tested on: HCT-15 colon
OVCAR-4 ovarian = tested on: OVCAR-4 ovarian
OVCAR-5 ovarian = tested on: OVCAR-5 ovarian
RPMI-8226 leukemia = tested on: RPMI-8226 leukemia
SN12C renal = tested on: SN12C renal
NCI-H522 lung = tested on: NCI-H522 lung
DU-145 prostate = tested on: DU-145 prostate

Row | SMILES | TGI (A549 NSCLC) [µM] | TGI (EKVX NSCLC) [µM] | TGI (HCC-2998 colon) [µM] | TGI (HCT-15 colon) [µM] | TGI (OVCAR-4 ovarian) [µM] | TGI (OVCAR-5 ovarian) [µM] | TGI (RPMI-8226 leukemia) [µM] | TGI (SN12C renal) [µM] | TGI (NCI-H522 lung) [µM] | GI50 (A549 NSCLC) [µM] | GI50 (EKVX NSCLC) [µM] | GI50 (HCC-2998 colon) [µM] | GI50 (HCT-15 colon) [µM] | GI50 (NCI-H522 lung) [µM] | GI50 (OVCAR-4 ovarian) [µM] | GI50 (OVCAR-5 ovarian) [µM] | GI50 (RPMI-8226 leukemia) [µM] | GI50 (SN12C renal) [µM] | GI50 (DU-145 prostate) [µM] | TGI (DU-145 prostate) [µM]
1 | CC1=CC2CC(C)C1(C)CCc1ccoc12 (stereo not drawn) | > 100 | > 100 | > 100 | > 100 | > 100 | > 100 | > 100 | > 100 | – | – | – | – | – | – | – | – | – | – | – | –
2 | CCOC(=O)C(=O)Nc1ccc(Cl)c(C(F)(F)F)c1 | > 100 | > 100 | > 100 | > 100 | > 100 | > 100 | > 100 | > 100 | > 100 | – | – | – | – | – | – | – | – | – | – | –
3 | Cn1c(=O)oc2cc(C3CCC(=O)N3Cc3ccc(Cl)cc3)ccc21 (stereo not drawn) | > 100 | > 100 | > 100 | > 100 | > 100 | > 100 | > 100 | > 100 | > 100 | – | – | – | – | – | – | – | – | – | – | –
4 | CC(=O)NC1=C(NCc2ccc(Cl)cc2)C(=O)c2ccccc2C1=O | > 50 | 31.4 | > 50 | 11.6 | 13.4 | – | – | > 50 | 3.13 | – | – | – | – | – | – | – | – | – | – | –
5 | C=CCN(CC=C)CC(C(C)=O)C(c1ccccc1)c1c(O)c2ccccc2oc1=O (stereo not drawn) | > 100 | > 100 | > 100 | > 100 | > 100 | > 100 | > 100 | > 100 | > 100 | – | – | – | – | – | – | – | – | – | – | –
6 | COc1ccccc1NC(=O)C1=C(C)NC(C)=C(C(=O)Nc2ccccc2OC)C1c1cccc2c1OCO2 | > 100 | > 100 | > 100 | > 100 | > 100 | > 100 | > 100 | > 100 | – | – | – | – | – | – | – | – | – | – | – | –
7 | O=C(O)c1ccc(C2C3C=CC(C3)C2[N+](=O)[O-])cc1 (stereo not drawn) | > 100 | > 100 | > 100 | > 100 | – | – | > 100 | > 100 | > 100 | – | – | – | – | – | – | – | – | – | – | –
8 | Cc1cc2c(cc1Br)C1(C)CCC(C)C1(C)O2 (stereo not drawn) | > 100 | > 100 | > 100 | > 100 | > 100 | > 100 | 33.2 | 80.9 | – | – | – | – | – | – | – | – | – | – | – | –
9 | CCC[CH2][Sn]1([CH2]CCC)[O]C(=O)CN=Cc2ccccc2[O]1 | 3.55 | 1.81 | 1.81 | 1.56 | 2.32 | 2.98 | 0.607 | 1.13 | 0.173 | 1.81 | 0.477 | 0.525 | 0.358 | 0.0349 | 0.881 | 1.63 | 0.187 | 0.292 | – | –
10 | C[Si]12OCCCN(CCO1)CCO2 | > 100 | > 100 | > 100 | – | – | > 100 | > 100 | > 100 | > 100 | – | – | – | – | – | – | – | – | – | – | –
11 | COC(=O)C1=Cc2c(cc(OC)c(OC)c2OC)[C@H](c2ccc(OC)c(OC)c2OC)C1C(=O)OC (stereo partly drawn) | > 100 | > 100 | > 100 | > 100 | > 100 | > 100 | > 100 | > 100 | > 100 | – | – | – | – | – | – | – | – | – | – | –
12 | Cc1ccc(/C(=C/C=C(C#N)C#N)Sc2ccccn2)cc1 | 31.8 | 31.1 | 8.84 | 15.8 | 11.6 | 13.9 | – | 4.72 | 19.6 | 12.3 | 14.6 | 3.85 | 4.09 | 6.49 | 3.01 | 4.13 | – | 1.91 | 2.28 | 6.06
13 | CNC(=O)OCc1[nH]ccc2c(C)c3nc4ccc(OC)cc4c3cc12 | > 100 | > 100 | > 53.5 | > 21.9 | 66.1 | > 100 | 10.6 | > 100 | > 20.7 | – | – | – | – | – | – | – | – | – | – | –
14 | COc1cc(/C=C2\C(=O)Nc3ccccc32)cc(OC)c1OC | > 100 | > 100 | 32.8 | > 100 | > 100 | 76.2 | 61.5 | > 100 | 90.4 | 20.3 | 18.8 | 12.4 | 11.6 | 14.1 | 22.1 | 29.2 | 12 | 20.7 | – | –
15 | CC1(C)N[P+]2(Nc3ccccc3O2)OC1=O (stereo not drawn) | > 100 | > 100 | > 100 | > 100 | > 100 | > 100 | > 100 | > 100 | – | – | – | – | – | – | – | – | – | – | – | > 100
16 | CN(C)S(=O)(=O)c1ccc(Nc2ccc(O)c3c2C(=O)c2c([N+](=O)[O-])ccc(O)c2C3=O)cc1 | > 100 | > 100 | – | > 100 | > 100 | > 100 | > 100 | > 100 | > 100 | – | – | – | – | – | – | – | – | – | – | > 100
17 | COC(=O)[C@@H]1CCCN1C(=O)[C@H]1CCCN1C(=O)[C@@H](Cc1c[nH]c2ccccc12)NC(=S)Nc1cc(C(F)(F)F)cc(C(F)(F)F)c1 | 5.54 | – | 4.3 | 12.8 | 7.55 | 18.4 | 7.93 | 10.9 | 6.65 | 2.19 | – | 2.05 | 3.35 | 2.47 | 2.29 | 4.3 | 2.62 | 3.14 | 2.24 | 4.63
18 | NC(=O)NCCSC1CCCCC1O (stereo not drawn) | > 100 | > 100 | – | > 100 | > 100 | > 100 | > 100 | > 100 | > 100 | – | – | – | – | – | – | – | – | – | – | > 100
19 | NC1=NC(c2ccc(F)cc2)C2=C(N1)c1ccc3ccccc3c1OCC2 (stereo not drawn) | > 100 | 75.2 | – | > 100 | > 100 | > 100 | – | > 100 | > 100 | 18.7 | 5.95 | – | 3.25 | > 100 | > 100 | > 100 | – | 22.2 | > 100 | > 100
20 | CCOC(=O)C1=C(c2ccccc2)N(c2ccc(OC)cc2)[C@]2(C#N)C(O)=C(Cl)C(Cl)=C(O)[C@]12C#N | > 100 | > 100 | – | 40.8 | > 100 | 39 | 18 | 36.3 | 46.6 | 69.1 | 40.1 | – | 19.2 | 21.3 | 46.3 | 18.5 | 1.97 | 18.8 | 31.9 | > 100
